Paper PMC7570497, “Design, Synthesis and Functional Analysis of Cyclic Opioid Peptides with Dmt-Tic Pharmacophore” (Molecules, 2020)
Bridge positions count the residues as written; N and C are the ends. Square brackets hold non-standard residues; d marks the D form. Peptide text beside a SMILES is read from it. Phe(2,4-F2) = N[C@@H](Cc1ccc(F)cc1F)C(=O)O; d2Nal = N[C@H](Cc1ccc2ccccc2c1)C(=O)O; Dmt = Cc1cc(O)cc(C)c1C[C@H](N)C(=O)O; Tic = O=C(O)[C@@H]1Cc2ccccc2CN1; dDap = NC[C@@H](N)C(=O)O

What was measured:
human KOR = molecular target: T1, human KOR (Homo sapiens, UniProt P41145); assay: Calcium mobilization assay, agonist mode, KOR; type: cell-based; conditions: for KOR pEC50 (CL95%) / KOR α ± SEM (efficacy, intrinsic activity): CHO cells co-expressing human KOR and Gαqi5, inactive = inactive up to 10 μM, n ≥ 5; for KOR pEC50 (CL95%): Fluo-4 AM, reference agonist dynorphin A, mean ± SEM; for KOR α ± SEM (efficacy, intrinsic activity): ratio of peptide Emax to Emax of dynorphin A
T1 construct: expressed in transfected cells; host or cells: CHO cells (gift from Prof. Girolamo Calo, Ferrara University)
T1 sequence (P41145 whole entry): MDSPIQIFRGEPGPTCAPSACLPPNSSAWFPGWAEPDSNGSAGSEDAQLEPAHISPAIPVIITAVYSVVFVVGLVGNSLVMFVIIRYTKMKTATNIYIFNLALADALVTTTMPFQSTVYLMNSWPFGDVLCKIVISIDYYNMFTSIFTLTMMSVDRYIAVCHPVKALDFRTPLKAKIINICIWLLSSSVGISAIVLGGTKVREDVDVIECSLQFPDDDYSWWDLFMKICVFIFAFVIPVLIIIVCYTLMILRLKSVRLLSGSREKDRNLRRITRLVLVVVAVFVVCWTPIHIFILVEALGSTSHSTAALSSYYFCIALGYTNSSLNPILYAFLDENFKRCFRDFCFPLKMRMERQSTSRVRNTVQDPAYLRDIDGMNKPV
Procedure: (§1) Calcium mobilization assay was performed as reported previously. CHO cells stably co-expressing human MOR or KOR and the C-terminally modified Gαqi5 and CHO cells co-expressing DOR and the GαqG66Di5 protein were used for the tests. Briefly, cells incubated for 24 h in 96-well black, clear-bottom plates were loaded with medium supplemented with probenecid (2.5 mmol/L), calcium-sensitive fluorescent dye Fluo-4 AM (3 μmol/L) and pluronic acid (0.01%) and kept at 37 °C for 30 min. Following aspiration of the loading solution and a washing step, serial dilutions of peptide stock solutions were added. Cells without peptides were treated as the control. […] Ligand efficacy was expressed as intrinsic activity (α) calculated as a ratio of the peptide Emax to Emax of the standard agonist.

DOR [1] = molecular target: T2, DOR (Homo sapiens, UniProt P41143); assay: Calcium mobilization assay, agonist mode, DOR; type: cell-based; design: expressed in transfected cells; host or cells: CHO cells (gift from Prof. Girolamo Calo, Ferrara University); conditions: CHO cells co-expressing DOR and GαqG66Di5, inactive = inactive up to 10 μM, n ≥ 5; for DOR pEC50 (CL95%): Fluo-4 AM, reference agonist DPDPE, mean ± SEM; for DOR α ± SEM (efficacy, intrinsic activity): ratio of peptide Emax to Emax of DPDPE
T2 sequence (P41143 whole entry): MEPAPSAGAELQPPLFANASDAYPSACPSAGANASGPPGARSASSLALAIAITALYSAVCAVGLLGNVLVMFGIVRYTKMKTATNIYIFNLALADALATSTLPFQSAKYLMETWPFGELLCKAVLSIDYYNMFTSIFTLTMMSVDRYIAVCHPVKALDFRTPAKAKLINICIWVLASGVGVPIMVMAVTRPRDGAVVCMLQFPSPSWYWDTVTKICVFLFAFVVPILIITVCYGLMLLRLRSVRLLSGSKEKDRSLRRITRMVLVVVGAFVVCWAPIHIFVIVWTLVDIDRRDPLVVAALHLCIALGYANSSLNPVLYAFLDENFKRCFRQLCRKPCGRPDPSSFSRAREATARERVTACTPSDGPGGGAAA
Procedure: as §1

human MOR = molecular target: T3, human MOR (Homo sapiens, UniProt P35372); assay: Calcium mobilization assay, agonist mode, MOR; type: cell-based; conditions: for MOR α ± SEM (efficacy, intrinsic activity): ratio of peptide Emax to Emax of dermorphin
T3 construct: expressed in transfected cells; host or cells: CHO cells (gift from Prof. Girolamo Calo, Ferrara University)
T3 sequence (P35372 whole entry): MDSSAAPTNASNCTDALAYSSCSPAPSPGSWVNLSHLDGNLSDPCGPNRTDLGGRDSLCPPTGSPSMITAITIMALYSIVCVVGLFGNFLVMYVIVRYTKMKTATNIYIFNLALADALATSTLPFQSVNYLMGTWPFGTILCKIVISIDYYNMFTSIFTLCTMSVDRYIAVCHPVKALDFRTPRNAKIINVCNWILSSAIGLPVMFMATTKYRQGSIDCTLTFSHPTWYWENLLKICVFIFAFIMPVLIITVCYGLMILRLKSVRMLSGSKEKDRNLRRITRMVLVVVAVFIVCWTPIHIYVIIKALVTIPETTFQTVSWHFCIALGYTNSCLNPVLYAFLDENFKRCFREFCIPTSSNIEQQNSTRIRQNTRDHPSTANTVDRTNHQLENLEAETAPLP

DOR [2] = molecular target: T2, DOR; assay: Calcium mobilization assay, antagonism of DPDPE at DOR
[3] = Enzymatic stability in rat brain homogenate; type: in vitro ADME; conditions: rat brain homogenate 10 mg protein/mL in Tris.HCl 50 mM pH 7.4; 100 μL homogenate + 100 μL peptide (0.5 mM); 37 °C; 60 min; HPLC area %; three independent experiments; read-out: Enzymatic Stability Area [%]: amount of peptide remained after 60 min incubation with rat brain homogenate
Procedure: The metabolic stability of analogs was assessed in the presence of the rat brain homogenate. All new cyclopeptides remained almost intact after 60 min incubation with the homogenate (Table 1).
Enzymatic degradation studies of the analogs were carried out using rat brain homogenate (10 mg protein/mL). To prepare, the homogenate rat brains were isolated, pooled and homogenized in a Polytron with 20 volumes of Tris.HCl (50 mM, pH 7.4), and the homogenate was then stored at −80°C until use. Aliquots of the homogenate (100 μL) were incubated with 100 μL of peptide (0.5 mM) over 0, 7.5, 15, 22.5, 30, and 60 min at 37 °C, in a final volume of 200 μL. The reaction was stopped at the required time by placing the tube on ice and acidifying the content with 20 μL of HCl (1 M). The aliquots were centrifuged at 20,000× g for 10 min at 4 °C. The supernatants were filtered over Millex-GV syringe filters (Millipore, Billerica, MA, USA) and analyzed by HPLC on a Vydac C18 column (4.6 mm × 250 mm, 5 μm,), using the solvent system of 0.1% TFA in water (A) and 80% acetonitrile in water containing 0.1% TFA (B) and a linear gradient of 0–100% B over 25 min. Three independent experiments for each assay were carried out. The amount of remaining peptide (area %) was calculated.

[4] = LC-MS elution order in reverse-phase chromatography to estimate lipophilicity; type: physicochemical; conditions: LC-MS (XIC); Aeris Peptide XB-C18 and Kinetex Biphenyl columns, identical order on both; gradient 5–80% acetonitrile in water in 10 min, 0.1% HCOOH
Source text: The lipophilicity of compounds is often a useful characteristic allowing one to predict or rationalize their interactions with a given receptor [40]. Here, the liquid chromatography–mass spectrometry (LC-MS) procedure was applied to study the elution order of analogs in the reverse-phase chromatography to estimate their lipophilicity. The mixture of peptides 1–6 was run in the same experimental conditions on two types of columns, an Aeris Peptide C18 column and a novel biphenyl stationary phase HPLC column. The biphenyl column can be complementary to a C18 column, as it can engage in π–π interactions with the eluted compound [41]. As expected, peptides were more retained on the biphenyl column, due to the π stacking interactions of their aromatic rings with the solid support.
Figure 1 LC-MS chromatograms (extracted ion currents (XIC)) for peptides 1–6. Panel (A): Aeris Peptide XB-C18 column. Panel (B): Kinetex Biphenyl column. […]
Protected amino acids were purchased from Bachem AG (Bubendorf, Switzerland). p-Methylbenzhydrylamine (MBHA) resin was obtained from Novabiochem (San Diego, CA, USA). Semi-preparative and analytical RP-HPLC was performed using Waters Breeze instrument (Milford, MA, USA) with the dual absorbance detector (Waters 2487) on a Vydac C18 column (22 × 250 mm, 10 μm) and Vydac C18 column (4.6 × 250 mm, 5 μm), respectively. […]

[5] = CHO cells co-expressing human MOR and Gαqi5, inactive = inactive up to 10 μM, n ≥ 5

| SMILES | KOR pEC50 (CL95%) (human KOR) | KOR α ± SEM (efficacy, intrinsic activity) (human KOR) | DOR pEC50 (CL95%) (DOR [1]) | DOR α ± SEM (efficacy, intrinsic activity) (DOR [1]) | MOR α ± SEM (efficacy, intrinsic activity) (human MOR; [5]) | Kb (DOR [2]) [nM] | remaining at 1 h, 0.25 mM [3] [%] | EC50 (human MOR) [nM] | MOR pEC50 (CL95%) (human MOR; CHO cells co-expressing human MOR and Gαqi5, Fluo-4 AM, reference agonist dermorphin, inactive = inactive up to 10 μM, mean ± SEM, n ≥ 5) | Elution order in reverse-phase chromatography (lipophilicity) [4] | EC50 (human KOR; read-out: KOR pEC50 (CL95%) (converted)) [nM] |
| --- | --- | --- | --- | --- | --- | --- | --- | --- | --- | --- | --- |
| C[C@@H](NC(=O)[C@@H](N)Cc1ccc(O)cc1)C(=O)N[C@@H](Cc1ccccc1)C(=O)NCC(=O)N[C@@H](Cc1ccc(O)cc1)C(=O)N1CCC[C@H]1C(=O)N[C@@H](CO)C(N)=O [dermorphin, reference compound] | inactive | inactive | inactive | inactive | 1.00 | – | – | – | – | – | – |
| Cc1cc(O)cc(C)c1C[C@H](NC(=O)[C@@H]1Cc2ccccc2CN1C(=O)[C@@H]1CC(=O)NCCCC[C@@H](NC(=O)[C@@H]2Cc3ccccc3CN2C(=O)[C@@H](N)Cc2c(C)cc(O)cc2C)C(=O)N[C@@H](Cc2ccccc2)C(=O)N1)C(N)=O [compound 6, Dmt-Tic-c[D-Lys-Phe-Asp]-Tic-Dmt-NH2] (H-[Dmt][Tic][dK]FD[Tic][Dmt]-NH2; lactam 3-5) | inactive | inactive | inactive | inactive | 0.17 ± 0.20 | 1.1 | 97.6 ± 1.2 | 331 | – | – | – |
| CC1(C)SSC(C)(C)[C@@H](NC(=O)[C@@H](N)Cc2ccc(O)cc2)C(=O)NCC(=O)N[C@@H](Cc2ccccc2)C(=O)N[C@H]1C(=O)O [DPDPE, reference compound] | inactive | inactive | – | – | – | – | – | – | – | – | – |
| Cc1cc(O)cc(C)c1C[C@H](N)C(=O)N1Cc2ccccc2C[C@H]1C(=O)N[C@@H]1CNC(=O)C[C@@H](C(N)=O)NC(=O)[C@H](Cc2ccccc2)NC(=O)[C@H](Cc2ccccc2)NC1=O [compound 4, Dmt-Tic-c[D-Dap-Phe-Phe-Asp]NH2] (H-[Dmt][Tic][dDap]FFD-NH2; lactam 3-6) | inactive | inactive | inactive | inactive | inactive | 2.45 | 96.21 ± 0.89 | – | inactive | – | – |
| CC[C@H](C)[C@H](NC(=O)[C@H](CCCNC(=N)N)NC(=O)[C@H](CCCNC(=N)N)NC(=O)[C@H](CC(C)C)NC(=O)[C@H](Cc1ccccc1)NC(=O)CNC(=O)CNC(=O)[C@@H](N)Cc1ccc(O)cc1)C(=O)N[C@@H](CCCNC(=N)N)C(=O)N1CCC[C@H]1C(=O)N[C@@H](CCCCN)C(=O)N[C@@H](CC(C)C)C(=O)N[C@@H](CCCCN)C(=O)N[C@@H](Cc1c[nH]c2ccccc12)C(=O)N[C@@H](CC(=O)O)C(=O)N[C@@H](CC(N)=O)C(=O)N[C@@H](CCC(N)=O)C(=O)O [dynorphin A, reference compound] | – | – | – | 0.99 ± 0.04 | – | – | – | – | – | – | – |
| Cc1cc(O)cc(C)c1C[C@H](N)C(=O)N1Cc2ccccc2C[C@H]1C(=O)N[C@@H]1CCCCNC(=O)C[C@@H](C(N)=O)NC(=O)[C@H](Cc2ccccc2)NC1=O [compound 5, Dmt-Tic-c[D-Lys-Phe-Asp]NH2] (H-[Dmt][Tic][dK]FD-NH2; lactam 3-5) | inactive | inactive | inactive | inactive | 0.3 ± 0.03 | 0.525 | 96.76 ± 0.91 | 813 | – | least lipophilic | – |
| Cc1cc(O)cc(C)c1C[C@H](N)C(=O)N1Cc2ccccc2C[C@H]1C(=O)N[C@@H]1CCCCNC(=O)C[C@@H](C(N)=O)NC(=O)[C@H](Cc2ccccc2)NC(=O)[C@H](Cc2ccccc2)NC1=O [compound 1, Dmt-Tic-c[D-Lys-Phe-Phe-Asp]NH2] (H-[Dmt][Tic][dK]FFD-NH2; lactam 3-6) | – | 0.20 ± 0.06 | inactive | inactive | 0.15 ± 0.02 | 42.7 | 97.88 ± 0.83 | 661 | – | – | 490 |
| Cc1cc(O)cc(C)c1C[C@H](N)C(=O)N1Cc2ccccc2C[C@H]1C(=O)N[C@@H]1CCCCNC(=O)C[C@@H](C(N)=O)NC(=O)[C@@H](Cc2ccc3ccccc3c2)NC(=O)[C@H](Cc2ccccc2)NC1=O [compound 2, Dmt-Tic-c[D-Lys-Phe-D-2Nal-Asp]NH2] (H-[Dmt][Tic][dK]F[d2Nal]D-NH2; lactam 3-6) | inactive | inactive | inactive | inactive | 0.37 ± 0.05 | 28.2 | 98.17 ± 0.23 | 617 | – | – | – |
| Cc1cc(O)cc(C)c1C[C@H](N)C(=O)N1Cc2ccccc2C[C@H]1C(=O)N[C@@H]1CCCCNC(=O)C[C@@H](C(N)=O)NC(=O)[C@H](Cc2ccc(F)cc2F)NC(=O)[C@H](Cc2ccccc2)NC1=O [compound 3, Dmt-Tic-c[D-Lys-Phe-2,4F2-Phe-Asp]NH2] (H-[Dmt][Tic][dK]F[Phe(2,4-F2)]D-NH2; lactam 3-6) | – | – | – | – | – | – | 95.19 ± 0.86 | – | – | – | – |
